According to patent US20030161871A1, “Solubilized riboflavin” (priority 2001, published 2003):
Values after ≈ are worked out from the molar mass of the structure shown. Like-named read-outs stand apart in the source and are kept apart here.

Tests used:
[1] = Solubilization of lumichrome in the FMN formulation; assay type: physicochemical
[2] = Solubility of riboflavin as a function of pH and % FMN; assay type: physicochemical; conditions: for solubility thermodynamic: thermodynamic from solid
Text: The equilibrium solubility of riboflavin is approximately 70 mcg/ml (see plot below with no FMN present). Precipitation is expected to occur if riboflavin reaches a level above this (due to riboflavin in drug substance or due to degradation to riboflavin with time), and precipitation would be unacceptable for patient safety with intravenous use.
Solubility of Riboflavin as a function of pH and % FMN [formula]
At 1% FMN, up to 365 mcg/ml of riboflavin can dissolve.

| solubility thermodynamic ([2]; 1% FMN solution, aqueous with cosolvent or surfactant or cyclodextrin, read-out: riboflavin that can dissolve (equilibrium solubility)) | solubility thermodynamic ([2]; 5% FMN solution, aqueous with cosolvent or surfactant or cyclodextrin, 5% FMN, pH 7-8, read-out: riboflavin that can dissolve (equilibrium solubility)) | equilibrium solubility of riboflavin ([2]; no FMN present) | solubility thermodynamic ([2]; no FMN present, read-out: equilibrium solubility of riboflavin) | Structure (SMILES) | solubility of lumichrome in the current formulation [1] |
| --- | --- | --- | --- | --- | --- |
|  |  |  |  | Cc1cc2nc3[nH]c(=O)[nH]c(=O)c3nc2cc1C [lumichrome] | dissolve at levels above the equilibrium solubility |
| ≤ 0.365 mg/mL | ≤ 1.32 mg/mL | approximately 70 mcg/ml | ~0.07 mg/mL (≈ 186 µM) | Cc1cc2nc3c(=O)[nH]c(=O)nc-3n(C[C@H](O)[C@H](O)[C@H](O)CO)c2cc1C [riboflavin] |  |
